Data reported in patent publication US7595326B2, “Synthesis of novel tubulin polymerization inhibitors: benzoylphenylurea (BPU) sulfur analogs” (Champions Biotechnology, Inc., priority 2005, dated 2009).

Columns and labels:
MCF-7 cells = experiment: Apoptosis of MCF-7 cells; format: cell-based; conditions: 48 hours
Panc203 = experiment: MTT growth inhibition, pancreatic cancer cell line Panc203; format: cell-based; conditions: for IC50: Homo sapiens, Panc203, MTT, 96-hours treatment, average of three independent experiments
Method: (§1) Eight of these analogs 6d, 6h, 6n, 6g, 7b, 7d, 8g, and 8h were tested for their cytotoxicity in seven pancreatic cell lines ASPC1, Panc1, Panc203, Panc430, Pane 1005, MiaPaca2, and HS766T using MTT assay. Cells were trypsinized, seeded at 5×10^3 cells/well in 96-well plate and allowed to grow for 24 hours before the treatment with exponential increasing concentrations of drugs in the presence of 10% FBS. After a 96-hours period of treatment, 20 μl of MTT solution (5 mg/ml in PBS) were added to each well, and the plates were then incubated for 3 hours at 37° C. Medium was then replaced with 100 μl of DMSO per well. Plates were shaken and the optical density was measured at 570 nm using a multiwell plate reader (Bio-Rad, Model 550, Bio-Rad Inc., Hercules, Calif.). Each experiment was performed in triplicate for each drug concentration and was carried out independently at least 3 times. The IC50 value was defined as the concentration needed for a 50% reduction in the absorbance calculated based on the survival curves. Response to drug treatment was assessed by standardizing treatment groups to untreated controls. Compounds activity was compared with compound 1.
(§2) Biology. Table 2 (Growth Inhibition of Pancreatic Cancer Cell Lines by BPU and BPTU Analogues (IC50)^a)compares the cytotoxicity of a series of new derivatives against a panel of seven pancreatic cancer cell lines, as determined by MTT assay. See, Mosmann, T., J. Immunol. Methods 65:55-63 (1983).

HS766 = experiment: MTT growth inhibition, pancreatic cancer cell line HS766; format: cell-based; conditions: Homo sapiens, Hs 766, 96-hours treatment, average of three independent experiments
Method: as §1, §2

Panc1005 = experiment: MTT growth inhibition, pancreatic cancer cell line Panc1005; format: cell-based; conditions: Homo sapiens, 96-hours treatment, average of three independent experiments
Method: as §1, §2

ASPC1 = experiment: MTT growth inhibition, pancreatic cancer cell line ASPC1; format: cell-based; conditions: Homo sapiens, 96-hours treatment, average of three independent experiments
Method: as §1, §2

Miapaca2 = experiment: MTT growth inhibition, pancreatic cancer cell line Miapaca2; format: cell-based; conditions: for IC50: Homo sapiens, MIA PaCa-2, MTT, 96-hours treatment, average of three independent experiments
Method: as §1, §2

Panc1 = experiment: MTT growth inhibition, pancreatic cancer cell line Panc1; format: cell-based; conditions: for IC50: Homo sapiens, PANC-1, MTT, 96-hours treatment, average of three independent experiments
Method: as §1, §2

Panc430 = experiment: MTT growth inhibition, pancreatic cancer cell line Panc430; format: cell-based; conditions: for IC50: Pancreatic cancer cell, MTT, 96-hours treatment, average of three independent experiments
Method: as §1, §2

LAPC-4 = experiment: MTT growth inhibition, prostate cancer cell line LAPC-4; format: cell-based, human; conditions: for IC50: Homo sapiens, LAPC4, MTT, average of three independent experiments
Method: (§3) This MTT assay was carried using human prostate cancer cell lines CWR22R, LAPC-4 and LnCap using Promega cell titer 96 nonradioactive cell proliferation kit. Cells were trypsinized and centrifuged at 1000 rpm for 5 minutes and the supernatant was aspirated. Cells were resuspended with HBSS to a concentration of […]. Cell suspension was diluted in serum containing medium to plate 2000 cells/well/0.2 ml. Cell suspension was transferred to sterile solution basin. Cells were plated using multichannel pipette set at 200 μl and incubated overnight for attachment. One plate was prepared for day 0 MTT assay as follows: 100 μl of media was removed from each well using multichannel pipette and 15 μl of MTT reagent was added. Plates were incubated at 37° C. for 4 hrs. 100 μl of STOP solution was added to each well and incubated at room temperature for 1 hour. Absorbance was measured at 570 and 650 nm on plate reader. All the media from the remaining plates were carefully removed and the cells were treated with the media containing drug. MTT assays were done on days 0, 3, 5 and 7. In the preliminary screening four BPU sulfur analogs 6l, 6h, 6n, 7d and 8h were screened and their activity was compared with compound 1.
(§4) Compounds with significant inhibitory activity in pancreatic cancer cells were further evaluated against prostate cancer cell lines in the MTT assay, (Mosmann, T., J. Immunol. Methods 65:55-63 (1983)) and the results were compared to those for compound 1 (Table 3).

LnCaP = experiment: MTT growth inhibition, prostate cancer cell line LnCaP; format: cell-based, human; conditions: for IC50: Homo sapiens, LNCaP, MTT, average of three independent experiments
Method: as §3, §4

CWR22R = experiment: MTT growth inhibition, prostate cancer cell line CWR22R; format: cell-based, human; conditions: for IC50: Homo sapiens, 22Rv1, MTT, average of three independent experiments
Method: as §3, §4

[1] = system: tubulin (colchicine binding site); experiment: Inhibition of [3H]colchicine binding
[2] = system: prostate cancer cell lines CWR22R, LAPC-4 and LnCap; experiment: MTT growth inhibition, prostate cancer cell lines (panel); format: cell-based, human; conditions: preliminary screening
Method: as §3, with “In the preliminary screening four BPU sulfur analogs 6l, 6h, 6n, 7d and 8h were screened and their activity was compared with compound 1.” left out
as §4

[3] = system: seven pancreatic cell lines; experiment: MTT growth inhibition, panel of seven pancreatic cancer cell lines; format: cell-based; conditions: for times more potent than compound 1, pancreatic cell lines: MTT, seven pancreatic cell lines
Method: as §1, §2

IC50 (Panc203) [µM] | IC50 (HS766) [µM] | IC50 (Panc1005) [µM] | IC50 (ASPC1) [µM] | IC50 (Miapaca2) [µM] | IC50 (Panc1) [µM] | IC50 (Panc430) [µM] | SMILES | further results
– | – | – | – | – | – | – | Cc1cc(NC(=O)NC(=O)c2ccccc2N(C)C)ccc1Oc1ncc(Br)cn1 [Compound 1] | rate of apoptosis, MCF-7 cells (MCF-7 cells; 10 nM): 16.1%; rate of apoptosis, MCF-7 cells (MCF-7 cells; 30 nM): 19.5%; rate of apoptosis, MCF-7 cells (MCF-7 cells; 100 nM): 27.7%
7.5 | 5.5 | > 10 | > 10 | 5 | > 10 | 2 | N=C(NC(=O)c1ccccc1)Oc1ccc(Sc2ncc(Br)cn2)cc1 [Compound 6g] | –
> 10 | 8.5 | > 10 | 10 | 10 | 9.5 | 7.5 | O=C(NC(=S)Nc1ccc(Sc2ncc(Br)cn2)cc1)c1ccccc1 [Compound 6h] | IC50 (LAPC-4): 6 µM; IC50 (LnCaP): > 10 µM; IC50 (CWR22R): > 10 µM
– | – | – | – | – | – | – | O=C(NC(=O)c1ccccc1[N+](=O)[O-])Nc1ccc(Sc2ncccn2)cc1 [Compound 6l] | IC50 (LAPC-4): 0.6 µM; IC50 (LnCaP): 0.5 µM; IC50 (CWR22R): 5 µM
– | – | – | – | – | – | – | O=C(NC(=O)c1ccccc1[N+](=O)[O-])Nc1ccc(Oc2nccc(Br)n2)cc1 [Compound 6m] | binding to the colchicine binding site (in words) [1]: poor binding affinity
– | – | – | – | – | – | – | O=C(NC(=O)c1ccccc1[N+](=O)[O-])Nc1ccc(Sc2ncc(Br)cn2)cc1 [Compound 6n, 1-[4-(5-Bromopyrimidin-2-ylsulfanyl)phenyl]-3-(2-nitrobenzoyl)-urea] | increase in potency of 6n over 6m, Panc203 (Panc203; sulfide versus ether link): 14 fold; binding to the colchicine binding site (in words) [1]: poor binding affinity; killing of MCF-7 cells compared with 1 (in words) (MCF-7 cells): more potent than 1; times more potent than compound 1, prostate cancer cell lines [2]: 20 times; increase in potency of 6n over 6m, LnCap (LnCaP; sulfide versus ether link): 20 fold; increase in potency of 6n over 6m, Mia-paca2 (Miapaca2; sulfide versus ether link): 8 fold; times more potent than compound 1, pancreatic cell lines [3]: 20 time; increase in potency of 6n over 6m, CWR22R (CWR22R; sulfide versus ether link): 100 fold; increase in potency of 6n over 6m, Panc1 (Panc1; sulfide versus ether link): 8 fold
5.5 | 8 | > 10 | 6 | 7 | 7.5 | 6.5 | Nc1ccccc1C(=O)NC(=O)Nc1ccc(Sc2ncccn2)cc1 [Compound 7b] | –
– | – | – | – | – | – | – | Nc1ccccc1C(=O)NC(=O)Nc1ccc(Sc2ncc(Br)cn2)cc1 [Compound 7d, 1-(2-Aminobenzoyl)-3-[4-(5-bromopyrimidin-2-ylsulfanyl)phenyl]urea] | increase in activity of 7d compared to 7c, Panc203 (Panc203; sulfide versus ether link): > 117 fold; increase in activity of 7d compared to 7c, LAPC-4 (LAPC-4; sulfide versus ether link): 7 fold; times more potent than compound 1, prostate cancer cell lines [2]: 20 times; increase in activity of 7d compared to 7c, Miapaca2 (Miapaca2; sulfide versus ether link): 9 fold; times more potent than compound 1, pancreatic cell lines [3]: 20 time; increase in activity of 7d compared to 7c, Panc1 (Panc1; sulfide versus ether link): 39 fold; increase in activity of 7d compared to 7c, Panc430 (Panc430; sulfide versus ether link): > 50 fold
5.5 | 6.5 | 5.5 | 2.5 | 8 | 6.5 | 5.5 | O=C(NC(=O)c1ccccc1[N+](=O)[O-])Nc1ccc([S+]([O-])c2ncc(Br)cn2)cc1 (stereo not shown) [Compound 8g, 1-[4-(5-Bromopyrimidine-2-sulfinyl)phenyl]-3-(2-nitrobenzoyl)-urea] | IC50 ([3]; Pancreatic cancer cell, all the cell lines of the panel): 2.5 to 8 µM
